Reference: US20240307283A1, “COMPOSITIONS AND METHODS FOR DECREASING PIGMENTATION” (The General Hospital Corporation, priority 2021, published 2024)

Tests used:
UACC257 cells = assay: siNNT-induced pigmentation with antioxidants, melanin content; assay type: cell-based, human; details: NAC 5 mM, MitoTEMPO 20 μM daily for 72 h; NADPH 0.1 M
Experimental: (§1) sIRNA transfection: A single treatment of 10 nmol/L of siRNA was delivered to a 60% confluent culture by transfection with Lipofectamine RNAiMAX (Life Technologies, #13778150) according to the manufacturer's recommendations. After 48-72 h of transfection, total RNA or protein was harvested. Melanin quantification: Equal numbers of cells were plated in 6-well plates. The cells were then harvested 72-96 hours post siRNA or NNT inhibitors compounds, as indicated in the legends, pelleted, washed in PBS and counted. 10^6 cells were used for measurement of protein concentration with the Pierce BCA protein assay (Thermo Fisher Scientific, #23225) and 10^6 cells were resuspended in 60 μl of 1 N NaOH solution and incubated at 60° C. for 2 h or until the melanin was completely dissolved. After cooling down to room temperature, samples were centrifuged at 500×g for 10 min and the supernatants were loaded onto a 96-well plate. The melanin content was determined by measuring the absorbance at 405 nm on an Envision plate reader, compared with a melanin standard (0 to 50 μg/ml; Sigma Aldrich, #M8631). Melanin content was expressed as micrograms per milligram of protein.

tyrosinase = assay: Cycloheximide chase assay of tyrosinase protein stability; assay type: cell-based, human; details: UACC257, 5 mM NAC, 0.1 mM NADPH, 20 μM MitoTEMPO for 48 h, then CHX
Experimental: Cycloheximide chase assay: 72 h after siRNA transfection (sicontrol or siNNT), UACC257 melanoma cells were treated with a protein synthesis inhibitor, cyclohexamide (CHX, Sigma Aldrich #C7698, 50 μg/ml), for the indicated times and then immediately subjected to immunoblotting for tyrosinase protein expression. The expression of tyrosinase was quantified using ImageJ software based on band intensities and normalized to the intensities of the corresponding β-actin bands. The normalized tyrosinase expression was then defined as relative tyrosinase expression by setting the mean values at t=0 in each experimental group to 1.0. […] The siRNA-transfected cells were cultured for an additional 48 h in the presence of these agents and then examined by the CHX chase assay as described above. pLJM-1-EGFP or pLJM1-NNT/FLAG was introduced into UACC257 cells using Lipofectamine 3000, 48 after transfection, the transfection medium was replaced with fresh medium containing DMSO or 10 μM MG132 (Sigma Aldrich #M8699) and pre-incubated for 6 h. Then. CHX was added to assess tyrosinase protein stability as described above.

NNT = assay: Immunoblot of NNT after redox modulators; assay type: cell-based, human; details: UACC257, NAC 5 mM, MitoTEMPO 20 μM, H2O2 100 μM, daily for 72 hours
Experimental: Immunoblotting: Whole-cell protein lysates were prepared using RIPA lysis buffer (Sigma-Aldrich, #R0278) supplemented with Protease and Phosphatase Inhibitor (ThermoFisher Scientific, #P178445). Protein concentrations were quantified using the Pierce BCA protein assay (ThermoFisher Scientific, #23225). Immunoblotting was performed by standard techniques using 4-15% Criterion TGX Precast Midi Protein gels (Bio-Rad Laboratories, #5671084) and transferring to 0.2 μm nitrocellulose membranes (Bio-Rad Laboratories, #1620112). Membranes were blocked with 5% non-fat milk (Boston BioProducts, #P-1400) in PBS containing 0.1% […] and incubated with one of the following primary antibodies at the indicated dilution (antibody sources are in the Key Resources Table): 1:20 dilution of anti-MITF monoclonal antibody CS, 1:1,000 dilution of anti-Tyrosinase clone T311, 1:1,000 dilution of anti-Mitofusin-2 antibody [6A8], 1:500 dilution of TRP2/DCT antibody, 1:1,000 dilution of anti-NNT antibody [8B4BB10], 1:1,000 dilution of anti-IDH1 ([…]) antibody, 1:1,000 dilution of p53 antibody [PAb 240], 1:1,000 dilution of TYRP1 antibody [EPR21960], 1:1,000 dilution of mouse monoclonal antibody Pmel17 (E-7), or 1:1,000 dilution of LC3B (D11) rabbit monoclonal antibody. Incubation with the appropriate secondary antibody followed, either a 1:5,000 dilution of donkey anti-Rabbit IgG-HRP or a 1:3,000 dilution of Amersham ECL mouse IgG, HRP. To verify equal loading of samples, membranes were re-probed with a 1:20,000 dilution of monoclonal anti-β-actin-peroxidase (Sigma Aldrich, #A3854). Protein bands were visualized using Western Lightning Plus ECL (PerkinElmer, #NEL105001EA) and quantified using ImageJ software (NIH).

[1] = test system: primary human melanocytes; assay: Melanosome maturation by transmission electron microscopy; assay type: cell-based; details: NAC 5 mM or MitoTEMPO 20 μM; for siNNT-induced melanosome maturation: daily for 96 h; for total number of melanosomes per um^2: daily for 96 hours
Experimental: Transmission electron microscopy: Cultured primary human melanocytes were grown in Medium 254 in 6-well transwell plates. Ninety-six h post siRNA or overexpression treatment, the cells were fixed with a modified Kamovsky's fixative (2% paraformaldehyde/2.5% glutaraldehyde in 0.1 M sodium cacodylate buffer, pH 7.4) for at least 2 h on a gentle rotator, followed by rinsing several times with 0.1 M cacodylate buffer. Then, the cells were treated with 1% osmium tetroxide/0.1 M cacodylate buffer for 1 h, rinsed thoroughly in 0.1 M cacodylate buffer, scraped, and the cell suspensions were transferred into 15 ml centrifuge tubes and centrifuged (3,000 rpm) for 15 min at 4° C.). Pelleted material was embedded in 2% agarose, dehydrated through an ethanol gradient (series of solutions from 30% to 100% ethanol), dehydrated briefly in 100% propylene oxide, then allowed to infiltrate overnight on a gentle rotator in a 1:1 mix of propylene oxide and Eponate resin (Ted Pella, Inc., kit with DMP30, #18010′). The following day, specimens were transferred into fresh 100% Eponate resin for 2-3 hours, then embedded in flat molds in 100% fresh Eponate resin, and embeddings were allowed to polymerize for 24-48 h at 60° C. Thin (70 nm) sections were cut using a Leica EM UC7 ultramicrotome, collected onto formvar-coated grids, stained with 2% uranyl acetate and Reynold's lead citrate, and examined in a JEOL JEM 1011 transmission electron microscope at 80 kV. Images were collected using an AMT digital imaging system with proprietary image capture software (Advanced Microscopy Techniques, Danvers, MA). Measurements of distances between melanosomes and mitochondria were quantified in FIJI (ImageJ) (Schindelin et al., 2012) by applying a customized macro to TEM micrographs. Melanosomes (N=˜50) were randomly selected for each condition within the whole image data set. Thirty Euclidean distances from the melanosome surface to the closest mitochondria surface were measured in nm. From these 30 single measurements the mean was calculated to give a final single mean value per melanosome-mitochondria event. A total of ˜50 events (N) were quantified per condition. Data were plotted and statistically analyzed using Prism 8 (Version 8.4.3). […] Cell area (μm^2), number of melanosome-mitochondria contacts, and number of mitochondria were quantified in FIJI (ImageJ) using polygon and multi-point selection tools. Melanosome identification and quantification were performed with images at 40,000× magnification or higher. […] All identifiable melanosomes in 4 cells per condition were quantified and classified, and the proportions of each stage were normalized to cell cytosolic area (determined by ImageJ).

human skin explants [2] = assay: Pigmentation of human skin explants with topical NNT inhibitors; details: human skin explants, data not shown
murine Melan-A cells = assay: Melanin content of Melan-A cells with NNT inhibitors; assay type: cell-based, mouse; details: 2 mM, FIG. 3A
Experimental: Murine Melan-A (Bennett et al., 1987) cells were obtained from the Wellcome Trust Functional Genomics Cell Bank. Melan-A cells were grown in RPMI 1640 supplemented with 10% FBS or FetalPlex (Gemini Bio-Products, #100-602), 100,000 U/L penicillin, 100 mg/L streptomycin sulphate, 100× Glutamax, and 200 nM TPA.
In vitro culture with NNT inhibitors: 2,3-Butanedione 97% (2,3 BD) (Sigma Aldrich, #B85307) (1 μM, 10 μM, 100 μM, 2 mM), N,N-Dicyclohexylcarbodiimide (DCC) (Sigma Aldrich, #D80002) (1 mM, 2 mM, 10 mM), and Palmitoyl coenzyme A lithium salt (Sigma Aldrich, #P9716) (10 μM, 2 mM) were reconstituted with DMSO (American Type Culture Collection, 4-X).
as §1, with “Melanin” for “sIRNA transfection: A single treatment of 10 nmol/L of siRNA was delivered to a 60% confluent culture by transfection with Lipofectamine RNAiMAX (Life Technologies, #13778150) according to the manufacturer's recommendations. After 48-72 h of transfection, total RNA or protein was harvested. Melanin”

[3] = test system: human melanocytes, dermal fibroblasts, and keratinocytes; assay: Cell viability of human skin cells with NNT inhibitors; assay type: cell-based; details: up to 10 μM, FIG. 10B
Experimental: Primary human keratinocytes were cultured in EpiLife® medium supplemented with human keratinocyte growth supplement (HKGS, ThermoFisher Scientific). Primary human fibroblasts were cultured in medium 106 supplemented with low serum growth supplement (LSGS, ThermoFisher Scientific). 10^6 and […] cells were plated per well of 6-well and 96-well plates, respectively. Drugs indicated in the figure legends were dissolved in DMSO and added 1:1000 to the culture media for 24 h at the concentrations indicated.
Cell viability assay: Human melanoma cell lines and isolated primary cultured human melanocytes were propagated and tested in early passage (Passages 7 to 9). The effects of NNT inhibitors (2,3BD, DCC, and Palmitoyl coenzyme A lithium salt) on cell viability were evaluated by the CellTiter-Glo Luminescent Cell Viability Assay (Promega, #G7570) and measurement of luminescence was performed on an EnVision 2104 Multilabel Reader (PerkinElmer). Human melanoma cell lines and primary melanocytes were plated on 96-well white plates (10,000 cells/well) and were treated with the NNT inhibitors at the indicated concentrations for 24 h.

human skin = assay: Topical treatment of a human subject (skin type 2); assay type: in vivo; details: 100 uM in DMSO, 15 days, twice per day
Experimental: A human subject with skin type 2 was treated with Hexetidine 100 uM in DMSO for 15 days, twice per day, individual.

human skin explants [4] = assay: Depigmentation of human skin explants by NNT activators; assay type: cell-based; details: after 36 hours, DMSO-based carrier, FIGS. 13A-B
Experimental: Skin samples considered surgical waste were obtained de-identified from healthy donors (IRB #2013P000093) undergoing reconstructive surgery, according to institutional regulations. Full thickness human abdominal skin explants were cultured in petri dishes with a solid phase and liquid phase phenol red free DMEM medium containing 20% penicillin/streptomycin/glutamine, 5% fungizone (Gibco), and 10% fetal bovine serum. Compounds were applied strictly on top of the explants, making sure no drip occurred into the underlying media. For UV irradiation experiments, a UV lamp (UV Products) was used at 1000 mJ/cm^2 UVB.
The ability of ASS, Usnic acid, 4-hexylresorcinol, candesartan, Nigericin, elaidylphosphocholine, hexitidine, naproxol, and Ginkgolic acid to depigment skin was tested in human skin explants. A DMSO-based carrier solution was used. DMSO was used as a negative control. […]

SMILES: NC(=O)C1=CN([C@@H]2O[C@H](COP(=O)(O)OP(=O)(O)OC[C@H]3O[C@@H](n4cnc5c(N)ncnc54)[C@H](OP(=O)(O)O)[C@@H]3O)[C@@H](O)[C@H]2O)C=CC1 [NADPH, β-nicontinamide adenine dinucleotide 2′-phosphate]
- siNNT-mediated increase in pigmentation (UACC257 cells): inhibited the siNNT-mediated increase in pigmentation
- siNNT-increased tyrosinase protein stability (tyrosinase): prevented

SMILES: OO [H2O2, Hydrogen peroxide]
- NNT protein levels (NNT): did not impact NNT protein levels

SMILES: CC(=O)N[C@@H](CS)C(=O)O [NAC, N-acetylcysteine]
- siNNT-mediated increase in pigmentation (UACC257 cells): inhibited the siNNT-mediated increase in pigmentation
- NNT protein levels (NNT): did not impact NNT protein levels
- siNNT-increased tyrosinase protein stability (tyrosinase): prevented
- siNNT-induced melanosome maturation [1]: prevented the siNNT-induced phenotype
- total number of melanosomes per um^2 [1]: not altered

SMILES: CCCCCCCCCCCCCCCC(=O)SCCNC(=O)CCNC(=O)[C@H](O)C(C)(C)COP(=O)(O)OP(=O)(O)OC[C@H]1O[C@@H](n2cnc3c(N)ncnc32)[C@H](O)[C@@H]1OP(=O)(O)O.[Li] [Palmitoyl-CoA, Palmitoyl coenzyme A lithium salt]
- effect on pigmentation (human skin explants [2]): no effect on pigmentation
- penetration of the epidermis (human skin explants [2]): did not penetrate the epidermis
- melanin content (murine Melan-A cells): not
- toxicity (viability) [3]: no significant toxicity

SMILES: CCCCC(CC)CN1CN(CC(CC)CCCC)CC(C)(N)C1 (centres unmarked) [Hexetidine, 1,3-bis(2-ethylhexyl)-5-methyl-1,3-diazinan-5-amine]
- depigmentation of human skin (human skin): successful depigmentation
- irritation (human skin): without significant irritation
- ability to depigment skin (human skin explants [4]): depigmenting effects

SMILES: CC1(C)CC(NC(=O)C[P+](c2ccccc2)(c2ccccc2)c2ccccc2)CC(C)(C)N1[O] [MitoTEMPO]
- siNNT-mediated increase in pigmentation (UACC257 cells): inhibited the siNNT-mediated increase in pigmentation
- NNT protein levels (NNT): did not impact NNT protein levels
- siNNT-increased tyrosinase protein stability (tyrosinase): prevented
- siNNT-induced melanosome maturation [1]: prevented the siNNT-induced phenotype
- total number of melanosomes per um^2 [1]: not altered
